Experiment [1] has as its target T1, Peroxisome proliferator-activated receptor gamma (Homo sapiens) (UniProt P37231).
T1 sequence (whole entry): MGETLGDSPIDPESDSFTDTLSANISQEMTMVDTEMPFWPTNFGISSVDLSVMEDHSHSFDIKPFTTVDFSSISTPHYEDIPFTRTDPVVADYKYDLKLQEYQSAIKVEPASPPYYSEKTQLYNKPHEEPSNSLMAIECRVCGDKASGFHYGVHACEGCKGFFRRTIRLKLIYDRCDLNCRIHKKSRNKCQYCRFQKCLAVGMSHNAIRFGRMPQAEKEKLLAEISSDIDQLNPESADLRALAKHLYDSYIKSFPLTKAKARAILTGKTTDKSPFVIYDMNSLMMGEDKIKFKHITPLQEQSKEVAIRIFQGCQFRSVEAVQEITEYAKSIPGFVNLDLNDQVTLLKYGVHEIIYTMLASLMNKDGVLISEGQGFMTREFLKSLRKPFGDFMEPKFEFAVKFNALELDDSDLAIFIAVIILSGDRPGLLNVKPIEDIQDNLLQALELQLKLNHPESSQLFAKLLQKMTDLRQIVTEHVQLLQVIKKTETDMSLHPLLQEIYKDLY
In words: Agonist activity at human PPARgamma expressed in Escherichia coli BL21 assessed as stimulation of binding between receptor and steroid receptor coactivator-1 at 320 uM by ELISA relative to untreated control.

In experiment [2] the target is T1, Peroxisome proliferator-activated receptor gamma (Homo sapiens). As to the kind of experiment: Binding affinity to human PPARgamma expressed in Escherichia coli BL21 assessed as binding constant by fluorescence quenching assay.
A further experiment deals with HeLa. As to the kind of experiment: Cytotoxicity against human HeLa cells after 48 hrs by MTT assay. It is filed as functional, cell-based. (Tetrazolium dyes change colour on reduction, which living cells bring about.)
In the next experiment the test system is MCF7. In words: Cytotoxicity against human MCF7 cells after 48 hrs by MTT assay. In kind it is functional, cell-based. The conditions noted are these: MCF7, 48 h.
In another experiment the test system is MDA-MB-231. In words: Cytotoxicity against human MDA-MB-231 cells after 48 hrs by MTT assay. In kind it is functional, cell-based. The conditions noted are these: MDA-MB-231, 48 h.
A further experiment relates to PC-3. In words: Cytotoxicity against human PC3 cells after 48 hrs by MTT assay. In kind it is functional, cell-based. The conditions noted are these: PC-3, 48 h.
A further experiment concerns A549. As to the kind of experiment: Cytotoxicity against human A549 cells after 48 hrs by MTT assay. In kind it is functional, cell-based. The conditions noted are these: A549, 48 h.
The target of experiment [3] is T1, Peroxisome proliferator-activated receptor gamma (Homo sapiens). As to the kind of experiment: Agonist activity at human PPARgamma expressed in Escherichia coli BL21 assessed as stimulation of binding between receptor and steroid receptor coactivator-1 by ELISA. A general note: ELISA stands for enzyme-linked immunosorbent assay.

A value given as a limit tells only on which side of the number the result lay.

On to `COc1ccc2c(c1)c(CC(=O)O)c(C)n2C(=O)c1ccc(Cl)cc1` [INDOMETHACIN], for which, in experiment [1], the fold change (FC) came out at 2. In addition, the K in experiment [2] was found to be 3.39 ×10⁵ /M. The IC50 in the experiment on HeLa is 50 µM; in the experiment with MCF7, > 100 µM; in the experiment on MDA-MB-231, > 100 µM; with PC-3 it was > 100 µM; with A549, > 100 µM.
Turning to `O=c1c(O)c(-c2ccccc2)oc2ccc(O)cc12`, the Activity entry in experiment [3] was “Dose-dependent effect”. In addition, the fold change (FC) in experiment [1] was 7. Moreover, the K in experiment [2] amounted to 2.36 ×10⁵ /M. The IC50 was 12.5 µM in the experiment on HeLa; > 100 µM in the experiment on MCF7; > 100 µM with MDA-MB-231; 50 µM in the experiment on PC-3; 100 µM with A549.

As usually defined, the IC50 is the concentration that gives 50% inhibition. A high value points to a need for much substance.

Values taken from ChEMBL document CHEMBL1177747, “Cytotoxic flavonoids as agonists of peroxisome proliferator-activated receptor gamma on human cervical and prostate cancer cells” (J Nat Prod, 2010).
